Measurements from patent US20190125715A1, “CDDO-Me AS A THERAPY FOR LUPUS” (priority 2014, published 2019).

Key:
B6.Sle1.Sle3 mice = test: Preventive experiment in B6.Sle1.Sle3 mice: spleen weight, splenic cellularity and lymphocyte subsets by flow cytometry; format: in vivo, mouse; design: Splenic B cells: B220+, AA4.1+ (mature) / Splenic B cells: Follicular B cells / Splenic B cells: Marginal zone B cells / Splenic B cells: B1a cells / Splenic B cells: B220+, AA4.1+ (immature) / Splenic B cells: T1 immature / Splenic B cells: T2 immature / Splenic B cells: T3 immature / Splenic T cells: CD4 T cells / Splenic T cells: CD8 T cells: unit not given here
Protocol: Flow cytometric analysis and antibodies: Splenocytes were depleted of red blood cells using a lysis buffer (containing 0.15M NH4Cl, 10 mM KHCO3, and 0.1 mM Na2EDTA, pH 7.2), and single-cell suspensions were prepared for flow cytometric analysis. Flow cytometric analysis was performed as described previously (17).
In vivo experiments: In the first preventive experiment, CDDO-Me was diluted in sesame oil. Two-month-old B6.Sle1.Sle3 mice (n=20) received CDDO-Me at a final dose of 3 mg/kg or vehicle alone (i.e., placebo), by oral gavage 3 times per week for a period of 2 months. In a confirmatory preventive study, 2-month-old MRL/lpr mice (n=8 per group) were orally administered CDDO-Me (3 mg/kg), sesame oil, water, or dexamethasone (1 mg/kg) 3 times a week for 2 months. Serum and 24-hour urine samples were obtained on days 0, 14, and 60. All serum samples were subjected to ELISA for autoantibodies, and urine samples were assayed for total protein as previously described (17,18). On day 60, when mice were killed, the cellular composition of the spleen and lymph nodes was determined by flow cytometry, and the kidneys were examined for pathology, as described below. In addition, the expression of various signaling molecules in the spleens and kidneys of the treated mice was assayed by Western blotting, as described above. In the treatment experiment, 7-month-old NZM2410 mice with proteinuria (n=4-7 per group) were treated with CDDO-Me (3 mg/kg) or placebo by oral gavage 5 times per week for a period of 2 months. Proteinuria, autoantibody production, spleen weight, and survival rates were assessed.
To address this, 2-month-old female B6.Sle1.Sle3 mice were treated for 60 days with CDDO-Me or placebo, and then spleen size and cellularity were assessed in both groups.

[1] = mouse, in vivo
Source text: Since this was a relatively long-term study, and since CDDO-Me cripples multiple signaling axes, one concern can be potential side effects. After 60 days of drug administration (either in the preventive or treatment experiment), body weights of mice from both the CDDO-Me group and the placebo group were similar. […] In addition, liver function was monitored by assaying aspartate aminotransferase (AST); however, there were no significant changes in the CDDO-Me-treated group (AST activity 75.7±6.5 units/liter) compared to the placebo group (74.0±5.8 units/liter).

[2] = absolute cell number in spleen, 4-month-old mice, 60 days treatment, mean ± SEM, n=10

Q: Which “Total spleen cell count” value (B6.Sle1.Sle3 mice; 4-month-old B6.Sle1.Sle3 mice after 60 days CDDO-Me 3 mg/kg oral gavage 3 times per week, mean ± SEM, n=10) does the source give for COC(=O)[C@]12CCC(C)(C)C[C@H]1[C@H]1C(=O)C=C3[C@@]4(C)C=C(C#N)C(=O)C(C)(C)[C@@H]4CC[C@@]3(C)[C@]1(C)CC2 [CDDO-Me, methyl-2-cyano-3,12-dioxooleana-1,9-dien-28-oate] here?
A: 89.1 ± 2.3 10^6

Q: And the “percentage of CD8+ T cells among splenic T cells” value (B6.Sle1.Sle3 mice; 60 days treatment, mean±SEM, placebo 6.8±1.1%, P=0.023)?
A: 9.73±0.4%

Q: What about the “percentage of CD4+ T cells among splenic T cells” value (B6.Sle1.Sle3 mice; 60 days treatment, mean±SEM, placebo 15.1±1.2%, P=0.021) of the same molecule?
A: 12.1±0.35%

Q: What about the “B cell activation, surface CD86 expression” value (B6.Sle1.Sle3 mice; 60 days treatment, placebo 8.72±0.45, P<0.002) of the same molecule?
A: 6.48±0.42 mean fluorescence intensity units

Q: And the “absolute number of total splenic CD4+ T cells” value (B6.Sle1.Sle3 mice; 60 days treatment, placebo 39.0±2.0 million, P<0.0001)?
A: 18.7±3.8 million

Q: What about the “Splenic B cells: B1a cells” value (B6.Sle1.Sle3 mice; [2]) of the same molecule?
A: 4.0 ± 0.3

Q: And the “Splenic B cells: B220+, AA4.1+ (immature)” value (B6.Sle1.Sle3 mice; [2])?
A: 10.4 ± 1.1

Q: What about the “Splenic B cells: B220+, AA4.1+ (mature)” value (B6.Sle1.Sle3 mice; [2]) of the same molecule?
A: 45.3 ± 3.2

Q: And the “Splenic B cells: Follicular B cells” value (B6.Sle1.Sle3 mice; [2])?
A: 30.9 ± 1.6

Q: And the “Splenic B cells: Marginal zone B cells” value (B6.Sle1.Sle3 mice; [2])?
A: 4.0 ± 0.2

Q: And the “Splenic B cells: T1 immature” value (B6.Sle1.Sle3 mice; [2])?
A: 1.0 ± 0.1

Q: What about the “Splenic B cells: T2 immature” value (B6.Sle1.Sle3 mice; [2]) of the same molecule?
A: 3.1 ± 0.2

Q: What about the “Splenic B cells: T3 immature” value (B6.Sle1.Sle3 mice; [2]) of the same molecule?
A: 4.0 ± 0.2

Q: And the “Splenic T cells: CD4 T cells” value (B6.Sle1.Sle3 mice; [2])?
A: 18.7 ± 3.8

Q: What about the “Splenic T cells: CD8 T cells” value (B6.Sle1.Sle3 mice; [2]) of the same molecule?
A: 8.6 ± 2.4

Q: And the “Splenic T cells: CD69+/CD4 T cells” value (B6.Sle1.Sle3 mice; [2])?
A: 5.1 ± 0.6

Q: And the “Splenic T cells: CD69+/CD8 T cells” value (B6.Sle1.Sle3 mice; [2])?
A: 0.6 ± 0.1

Q: What about the “decrease of overall spleen weights compared to the placebo-treated group” value (B6.Sle1.Sle3 mice; female B6.Sle1.Sle3 mice treated for 60 days) of the same molecule?
A: ~50%

Q: What about the “AST activity (liver function)” value [1] of the same molecule?
A: 75.7±6.5 units/liter

Q: And the “all blood cell counts (WBC, RBC, hemoglobin, hematocrit, MCV, MCH, MCHC, RDW, MPV, neutrophils, lymphocytes, eosinophils) versus placebo group” value [1]?
A: remained similar

Q: What about the “platelet counts versus placebo group” value [1] of the same molecule?
A: comparable
